Values after ≈ are worked out from the molar mass of the structure shown. “Also recorded” adds a separate entry of the source.
Key:
NKCC1 = target: T1, NKCC1 (Homo sapiens, UniProt P55011); test: Cl- influx assay in NKCC1-transfected HEK293 cells; type: cell-based; settings: for inhibition at 10 µM: HEK293, read-out: Inhibition 10 μM Cl- influx (%); for inhibition at 100 µM: HEK293, read-out: Inhibition 100 μM Cl- influx (%); for Inhibition 10 μM Cl- influx (%) / Inhibition 100 μM Cl- influx (%): NKCC1-transfected HEK293 cells
T1 construct: host or cells: HEK293
T1 sequence (P55011 1-1212): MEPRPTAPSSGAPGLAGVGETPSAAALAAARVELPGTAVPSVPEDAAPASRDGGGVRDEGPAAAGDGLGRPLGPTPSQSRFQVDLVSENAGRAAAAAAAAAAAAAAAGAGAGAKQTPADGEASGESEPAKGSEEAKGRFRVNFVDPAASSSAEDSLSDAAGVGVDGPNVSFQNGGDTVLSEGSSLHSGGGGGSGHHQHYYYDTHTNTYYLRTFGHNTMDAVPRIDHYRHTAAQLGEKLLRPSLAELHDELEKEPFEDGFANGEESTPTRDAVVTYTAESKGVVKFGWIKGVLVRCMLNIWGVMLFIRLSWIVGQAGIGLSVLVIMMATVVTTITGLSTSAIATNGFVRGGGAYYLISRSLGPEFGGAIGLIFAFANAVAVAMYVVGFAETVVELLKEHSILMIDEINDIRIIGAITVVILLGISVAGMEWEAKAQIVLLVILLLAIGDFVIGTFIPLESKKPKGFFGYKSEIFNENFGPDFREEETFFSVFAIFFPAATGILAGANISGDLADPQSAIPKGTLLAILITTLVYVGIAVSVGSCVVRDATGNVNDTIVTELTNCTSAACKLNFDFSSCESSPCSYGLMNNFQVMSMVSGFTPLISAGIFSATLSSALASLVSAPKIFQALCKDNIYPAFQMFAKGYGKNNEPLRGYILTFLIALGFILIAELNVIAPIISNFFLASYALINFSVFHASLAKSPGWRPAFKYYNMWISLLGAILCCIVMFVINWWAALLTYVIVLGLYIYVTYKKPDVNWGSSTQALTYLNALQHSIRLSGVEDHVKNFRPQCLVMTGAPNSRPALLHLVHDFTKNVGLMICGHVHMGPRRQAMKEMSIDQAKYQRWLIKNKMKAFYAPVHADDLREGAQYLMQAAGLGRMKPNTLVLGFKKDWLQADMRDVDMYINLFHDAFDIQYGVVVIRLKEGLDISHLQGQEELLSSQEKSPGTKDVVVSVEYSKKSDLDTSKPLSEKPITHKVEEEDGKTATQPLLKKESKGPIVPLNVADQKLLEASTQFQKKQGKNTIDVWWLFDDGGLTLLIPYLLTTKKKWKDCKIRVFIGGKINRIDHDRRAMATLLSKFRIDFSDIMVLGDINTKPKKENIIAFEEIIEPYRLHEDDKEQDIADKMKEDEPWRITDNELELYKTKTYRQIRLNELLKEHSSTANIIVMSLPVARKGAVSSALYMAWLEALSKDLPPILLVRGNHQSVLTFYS
Protocol: HEK293 cells were cultured in Dulbecco’s modified Eagle’s medium (DMEM) supplemented with 10% fetal bovine serum, 1% L-glutamine, 100 U/mL penicillin, and 100 μg/mL streptomycin and maintained at 37 °C in a 5% CO2 humidified atmosphere. To assess NKCC1 and NKCC2 activity (Cl^– influx assay), 3 million HEK cells were plated in a 10 cm cell-culture dish and transfected with a transfection mixture comprising 5 mL of DMEM, 4 mL of Opti-MEM, 8 μg of DNA plasmid coding for NKCC1 (PRK-NKCC1 obtained from Medical Research Council and the University of Dundee), NKCC2 (OriGene plasmid #RC216145) subcloned in PRK5 plasmid, or mock control (empty vector), together with 8 μg of a plasmid coding for the Cl^–-sensitive variant of the membrane-targeted fluorescent protein YFP, mbYFPQS (Addgene plasmid #80742),[53] and 32 μL of Lipofectamin 2000. To assess KCC2 activity (Tl influx assay), cells were transfected with 8 μg of KCC2[54] subcloned in the PRK5 plasmid or mock control (empty vector) and 16 μL of Lipofectamin 2000. After 4 h, the cells were collected and plated in 96-well black-walled, clear-bottomed plates at a density of 2.5 × 10^4. After 48 h, cells were used for the Cl^– or Tl influx assays. All reagents were purchased from Life Technologies, unless otherwise specified.
Transfected cells were treated with 10 μM or 100 μM bumetanide (as positive controls), DMSO (as the negative control), or with each of our compounds in 100 μL/well of a Cl^–-free hypotonic solution (67.5 mM Na^+ gluconate, 2.5 mM K^+ gluconate, 15 mM HEPES pH 7.4, 50 mM glucose, 1 mM Na2HPO4, 1 mM NaH2PO4, 1 mM MgSO4, and 1 mM CaSO4). After 30 min of incubation, plates were loaded into a Victor 3V (PerkinElmer) multiplate reader equipped with an automatic liquid injector system, and fluorescence of Cl^–-sensitive mbYFPQS was recorded with excitation at 485 nm and emission at 535 nm. For each well, fluorescence was first recorded for 20 s of the baseline and for 60 s after delivery of a NaCl concentrated solution (74 mM final concentration in the assay well). Fluorescence of Cl^–-sensitive mbYFPQS is inversely correlated to the intracellular Cl^– concentration;[53] therefore, chloride influx into the cells determined a decrease in mbYFPQS fluorescence. To represent the fluorescent traces in time, we normalized the fluorescence value for each time point to the average of the fluorescence value of the first 20 s of the baseline (ΔF/F0). To quantify the average effects as represented by the bar plots, we expressed the decrease in fluorescence upon NaCl application as the average of the last 10 s of ΔF/F0 normalized traces. Moreover, for each experiment, to account for the contribution of Cl^– changes that were dependent on transporters/exchangers other than NKCC1 or NKCC2, we subtracted the value of the last 10 s of ΔF/F0 normalized traces obtained from mock-transfected cells (either control or treated) from the respective ΔF/F0 value obtained from the cells transfected with NKCC1 or NKCC2. We then presented in the figures all the data as a percentage of the fluorescence decrease versus the value of the control DMSO.

[1] = Aqueous kinetic solubility in PBS pH 7.4; type: physicochemical; settings: phosphate buffered saline (PBS); aqueous kinetic solubility from 10 mM DMSO solution in PBS pH 7.4; target concentration 250 μM (final DMSO 2.5%)
Protocol: 1. Aqueous kinetic solubility.
30 µL aliquots of 10 mM DMSO stock solution of the test compound were incubated in Phosphate
Buffered Saline (PBS) at pH 7.4 at 25°C for 24h. After centrifugation the dissolved compound in the
supernatant was quantified by LC-MS/MS.
Aqueous kinetic solubility was determined by UV quantification at
215 nm. […]

[2] = In vitro metabolic stability in mouse liver microsomes; settings: tissue homogenate, pH 7.4
Protocol: 1. Aqueous kinetic solubility. […]
3. In vitro mouse microsomial stability. […]
microsomes (Sekisui Xenotech, LCC), 0.1M Tris-HCl buffer (pH 7.4), and 10% DMSO. The final […]
After pre-incubation, the cofactors (NADPH, G6P, G6PDH, MgCl2 pre-dissolved in 0.1M Tris-HCl) were added to the incubation mixture and the incubation was continued at 37 °C for 1h. At each time point (0, 5, 15, 30, 60 min), 30µL of incubation mixture was diluted with 200 µL cold acetonitile spiked with 200 nM of warfarin as internal standard, followed by centrifugation at 3500 g for 30 min. The supernatant was further diluted with H2O (1:1) for analysis.
An aliquot of 200 µl of the supernatant was removed, and the concentration of the test compound was […]
quantified by LC-MS/MS. The percentage of the test compound remaining at each time point relative […]
to t=0 was calculated. The half-lives (t½) were determined by a one-phase decay equation using a […]
non-linear regression of compound concentration vs time.

SMILES | inhibition at 10 µM (NKCC1) [%] | inhibition at 100 µM (NKCC1) [%] | Inhibition 10 μM Cl- influx (%) (NKCC1) | Inhibition 100 μM Cl- influx (%) (NKCC1) | solubility at 24 h [1] [µM] | half-life at 5 μM [2] [min]
CN(C)S(=O)(=O)c1cc([N+](=O)[O-])ccc1NCCC(C)(C)C [Compound 14, 2-(3,3-Dimethylbutylamino)-N,N-dimethyl-5-nitro-benzenesulfonamide] | 10 ± 4.9 | 17 ± 11.9 |  |  |  | 
COCCCCCCNc1ccc(C(=O)O)cc1S(=O)(=O)N(C)C [Compound 31, 3-(-N,N-Dimethylsulfamoyl)-4-(6-methoxyhexylamino)benzoic Acid] |  |  | did not show any NKCC1 inhibition; also recorded: Inactive | did not show any NKCC1 inhibition; also recorded: Inactive | > 250 | 
CCCCCCCCNc1ccc(C(=O)O)cc1S(=O)(=O)NC [Compound 21, 3-(-N-Methylsulfamoyl)-4-(octylamino)benzoic Acid] | 16.2 ± 4.8 | 20.1 ± 14.7 |  |  | 53 (≈ 18.2 µg/mL) | 12
CCCCCCNc1ccc(C(=O)O)cc1S(=O)(=O)NC [Compound 20, 4-(Hexylamino)-3-(methylsulfamoyl)benzoic Acid] |  |  | Inactive | Inactive | 247 (≈ 77.7 µg/mL) | 29
CCCCNc1ccc([N+](=O)[O-])cc1S(=O)(=O)N(C)C [Compound 11, 2-(Butylamino)-N,N-dimethyl-5-nitro-benzenesulfonamide] |  | 15.2 ± 9.6 | Inactive |  |  | 
CCCCCCNc1ccc([N+](=O)[O-])cc1S(N)(=O)=O [Compound 6, 2-(Hexylamino)-5-nitro-benzenesulfonamide] |  | 3.8 ± 5.6 | no inhibitory activity; also recorded: Inactive |  | 6 (≈ 1.81 µg/mL) | < 5
CCCCNc1ccc([N+](=O)[O-])cc1S(=O)(=O)NC [Compound 9, 2-(Butylamino)-N-methyl-5-nitro-benzenesulfonamide] |  | 13.3 ± 11.4 | Inactive |  |  | 
CC(C)(C)CCNc1ccc([N+](=O)[O-])cc1S(N)(=O)=O [Compound 8, 2-(3,3-Dimethylbutylamino)-5-nitro-benzenesulfonamide] |  | 14.5 ± 10.6 | Inactive |  |  | 
CCCCCCCCNc1ccc(C(=O)O)cc1S(=O)(=O)N(C)C [Compound 25, 3-(-N,N-Dimethylsulfamoyl)-4-(octylamino)benzoic Acid] |  | 70.6 ± 9.2 | Inactive |  | 52 (≈ 18.5 µg/mL) | 13
CCCCCCNc1ccc([N+](=O)[O-])cc1S(=O)(=O)N(C)C [Compound 12, 2-(Hexylamino)-N,N-dimethyl-5-nitro-benzenesulfonamide] |  | 4.9 ± 6.8 | Inactive |  | 1 (≈ 0.329 µg/mL) | < 5
CNS(=O)(=O)c1cc(C(=O)O)ccc1NCCC(C)(C)C [Compound 22, 4-(-N-3,3-Dimethylbutylamino)-3-(methylsulfamoyl)benzoic Acid] |  | 2.6 ± 3.5 | Inactive |  |  | 
CCCCCCCCNc1ccc([N+](=O)[O-])cc1S(N)(=O)=O [Compound 7, 5-Nitro-2-(octylamino)benzenesulfonamide] | 0.3 ± 2.9 | 5.8 ± 6.8 |  |  | < 1 | < 5
CCCCNc1ccc(C(=O)O)cc1S(N)(=O)=O [Compound 15, 4-(Butylamino)-3-sulfamoyl-benzoic Acid] |  | 6.4 ± 5.3 | Inactive |  |  | 
CCCCNc1ccc(C(=O)O)cc1S(=O)(=O)N(C)C [Compound 23, 4-(Butylamino)-3-(-N,N-dimethylsulfamoyl)benzoic Acid] | 2.6 ± 2.8 | 15.6 ± 5.4 |  |  |  | 
CC(C)(C)CCNc1ccc(C(=O)O)cc1S(N)(=O)=O [Compound 18, 4-(3,3-Dimethylbutylamino)-3-sulfamoyl-benzoic Acid] |  | 5.1 ± 4.9 | Inactive |  |  | 
CCCCCCCCNc1ccc([N+](=O)[O-])cc1S(=O)(=O)NC [Compound 10, N-Methyl-5-nitro-2-(octylamino)benzenesulfonamide] |  |  | Inactive | Inactive |  | 
CCCCNc1ccc(C(=O)O)cc1S(=O)(=O)NC [Compound 19, 4-(Butylamino)-3-(-N-methylsulfamoyl)benzoic Acid] | 6.4 ± 2.1 | 6.2 ± 5.7 |  |  |  | 
CCCCCCCCNc1ccc([N+](=O)[O-])cc1S(=O)(=O)N(C)C [Compound 13, N,N-Dimethyl-5-nitro-2-(octylamino)benzenesulfonamide] |  |  | Inactive | Inactive |  | 

Source: paper PMC8311653, “Design, Synthesis, In Vitro and In Vivo Characterization of Selective NKCC1 Inhibitors for the Treatment of Core Symptoms in Down Syndrome” (Journal of Medicinal Chemistry, 2021)
